Experimental data as given in patent US8552145B2, “Vaccine for modulating between T1 and T2 immune responses” (priority 2001, dated 2013).
No end group written: not given here.

How the values were obtained:
[1] = test system: BP1-151HSA conjugate (MUC1 24 amino acid peptide conjugated to HSA); assay: Anti-MUC1 antibody levels (serum ELISA) after immunization, BP1-151-HSA solid phase; assay type: in vivo, C57BL/6 mice; conditions: for antibody levels / humoral immunity (in words): immunized mice, liposomal formulations containing lipid A adjuvant
Experimental: (§1) MUC1 based liposomal vaccines (“BLP25 liposomal vaccines”) at a dose of 100 μg (250 μl) was injected subcutaneously, two, three, or four times, at biweekly intervals, into right and left inguinal regions (125 μl per each site).

[2] = test system: BP1-151HSA conjugate (MUC1 24 amino acid peptide conjugated to HSA); assay: Anti-MUC1 IgG levels (serum ELISA) in MUC1 transgenic mice, BP1-151 HSA solid phase; assay type: in vivo, C57Bl/6 MUC1 transgenic mice; conditions: Protocol 1347C, 4 immunizations, individual mouse
Excerpt: To further characterize the observed phenomenon, MUC I transgenic mice were immunized with MUC I based liposomal formulations containing mono- or dilipopeptides.

[3] = test system: Blend C (natural human MUC1 mucin purified from ovarian cancer ascites); assay: Anti-MUC1 antibody levels (serum ELISA) after immunization, Blend C solid phase; assay type: in vivo; conditions: Protocol 1346; C57Bl/6 mice immunized two times, subcutaneously; individual mouse
Sequence of Blend C (natural human MUC1 mucin purified from ovarian cancer ascites) (P15941 24-1255): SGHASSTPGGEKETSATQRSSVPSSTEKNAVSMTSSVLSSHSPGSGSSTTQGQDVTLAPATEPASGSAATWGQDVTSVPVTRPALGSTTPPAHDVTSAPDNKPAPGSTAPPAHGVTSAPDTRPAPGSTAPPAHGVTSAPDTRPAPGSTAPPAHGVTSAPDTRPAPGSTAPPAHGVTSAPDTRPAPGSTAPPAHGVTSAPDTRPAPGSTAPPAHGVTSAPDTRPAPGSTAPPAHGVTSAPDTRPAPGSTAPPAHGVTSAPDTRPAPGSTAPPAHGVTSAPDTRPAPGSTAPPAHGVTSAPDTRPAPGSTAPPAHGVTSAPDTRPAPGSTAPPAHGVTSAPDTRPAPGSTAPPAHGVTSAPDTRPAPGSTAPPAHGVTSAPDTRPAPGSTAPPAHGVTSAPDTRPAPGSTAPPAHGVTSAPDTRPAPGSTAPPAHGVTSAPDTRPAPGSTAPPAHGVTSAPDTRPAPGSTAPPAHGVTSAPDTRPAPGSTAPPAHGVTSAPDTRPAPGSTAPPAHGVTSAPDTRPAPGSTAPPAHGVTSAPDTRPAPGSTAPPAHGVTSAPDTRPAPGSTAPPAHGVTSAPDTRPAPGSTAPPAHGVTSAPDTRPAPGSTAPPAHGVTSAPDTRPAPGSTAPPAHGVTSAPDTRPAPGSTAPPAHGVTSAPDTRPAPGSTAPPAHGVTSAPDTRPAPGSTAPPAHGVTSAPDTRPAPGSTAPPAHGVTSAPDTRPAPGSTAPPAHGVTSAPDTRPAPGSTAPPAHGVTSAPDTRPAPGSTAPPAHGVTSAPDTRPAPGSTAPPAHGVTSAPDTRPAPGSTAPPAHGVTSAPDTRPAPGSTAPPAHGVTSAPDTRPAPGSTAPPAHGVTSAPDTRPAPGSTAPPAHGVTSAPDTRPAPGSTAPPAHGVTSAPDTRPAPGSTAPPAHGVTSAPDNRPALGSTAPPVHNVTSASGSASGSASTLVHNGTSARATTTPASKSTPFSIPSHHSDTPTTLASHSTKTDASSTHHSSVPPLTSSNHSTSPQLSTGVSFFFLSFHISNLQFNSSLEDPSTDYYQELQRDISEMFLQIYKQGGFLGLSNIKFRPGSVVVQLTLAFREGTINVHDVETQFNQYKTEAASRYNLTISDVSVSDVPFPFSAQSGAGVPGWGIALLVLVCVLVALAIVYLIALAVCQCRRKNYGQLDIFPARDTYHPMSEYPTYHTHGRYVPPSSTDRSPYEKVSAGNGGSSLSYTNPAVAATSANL
Experimental: as §1

Substance	Antibody Titer, IgG, BP1-151-HSA ([1]; Protocol 1346, C57Bl/6 mice immunized two times, subcutaneously, individual mouse)	antibody levels / humoral immunity (in words) [1]	Antibody Titer, IgG, BP1-151 HSA [2]	Antibody Titer, IgG, Blend C [3]
GVTSAPDTRPAPGSTAS(myristyl)L [BP1-228]	only low titers	very low or no antibody levels	very low titers of IgG	no antibodies were detected
GVTSAPDTRPAPGSTAS(myristyl)S(myristyl)L [BP1-217]	–	–	strong IgG antibody response	–
TAPPAHGVTSAPDTRPAPGSTAPPK(palmitate)K(palmitate)G [BP1-132A]	–	induce humoral immunity	–	–
